# Laboratory results reported in PMC6700816, “A novel starch-binding laccase from the wheat pathogen Zymoseptoria tritici highlights the functional diversity of ascomycete laccases” (BMC Biotechnology, 2019).
# Target: T1, ZtrLac1A (Zymoseptoria tritici, UniProt F9XCG9)
# T1 construct: gene MYCGRDRAFT_109666; mature protein residues 46-723, native signal peptide removed; catalytic module (556 residues) plus linker plus CBM20; secreted by Pichia pastoris X-33 (pPICZalphaA); N-glycosylated; 79 kDa calculated, 93 kDa on SDS-PAGE; EC 1.10.3.2
# T1 sequence (F9XCG9 46-723): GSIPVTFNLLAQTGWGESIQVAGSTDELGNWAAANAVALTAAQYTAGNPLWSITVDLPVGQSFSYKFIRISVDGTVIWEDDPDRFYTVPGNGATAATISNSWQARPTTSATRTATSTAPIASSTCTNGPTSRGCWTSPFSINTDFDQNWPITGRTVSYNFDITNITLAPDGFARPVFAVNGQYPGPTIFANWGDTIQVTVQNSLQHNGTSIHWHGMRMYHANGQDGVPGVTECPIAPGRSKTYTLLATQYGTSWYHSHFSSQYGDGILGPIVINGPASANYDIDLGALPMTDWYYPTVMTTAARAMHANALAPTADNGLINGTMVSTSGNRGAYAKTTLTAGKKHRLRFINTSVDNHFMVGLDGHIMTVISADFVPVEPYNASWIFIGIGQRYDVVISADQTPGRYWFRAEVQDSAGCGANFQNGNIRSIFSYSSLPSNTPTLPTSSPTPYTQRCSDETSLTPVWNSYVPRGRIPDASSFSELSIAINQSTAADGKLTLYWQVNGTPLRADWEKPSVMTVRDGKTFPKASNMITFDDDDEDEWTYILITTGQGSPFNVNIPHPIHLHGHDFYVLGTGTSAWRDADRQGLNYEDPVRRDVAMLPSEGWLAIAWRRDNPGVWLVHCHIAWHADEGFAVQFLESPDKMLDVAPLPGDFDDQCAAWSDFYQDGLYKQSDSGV
# Test: isothermal titration calorimetry, one-site model
# Conditions: 20 mM sodium acetate, pH 5.5, 25 °C; starch mimic, CBM20 starch-binding module, not the laccase active site
# Source text: isothermal titration calorimetry, one-site model on ZtrLac1A | ZtrLac1A binds to β-CD with an association constant of Ka
smiles,measurement,value
"OC[C@H]1O[C@@H]2O[C@H]3[C@H](O)[C@@H](O)[C@@H](O[C@H]4[C@H](O)[C@@H](O)[C@@H](O[C@H]5[C@H](O)[C@@H](O)[C@@H](O[C@H]6[C@H](O)[C@@H](O)[C@@H](O[C@H]7[C@H](O)[C@@H](O)[C@@H](O[C@H]8[C@H](O)[C@@H](O)[C@@H](O[C@H]1[C@H](O)[C@H]2O)O[C@@H]8CO)O[C@@H]7CO)O[C@@H]6CO)O[C@@H]5CO)O[C@@H]4CO)O[C@@H]3CO [β-CD, β-cyclodextrin]",Kd,32.6 ± 2.4 µM
